From patent publication US12065436B2, “Cardiac sarcomere inhibitors” (Cytokinetics, Inc., priority 2018, dated 2024)
Where two headings read alike, the source gives them in different places.

Key:
[1] = test system: rat cardiac contractility (left ventricle fractional shortening); experiment: Echocardiography of acute effect on rat cardiac contractility, oral gavage; assay type: in vivo, Sprague Dawley rats; conditions: for inhibition in vivo at 6 mg/kg: oral gavage
How it was run: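 Male Sprague Dawley rats under isoflurane (1-3%) anesthesia had three pre-dose baseline M-mode images of the left ventricle (parasternal long-axis view) taken at 1 minute intervals. Compound in 0.5% HPMC 2910: 0.1% Tween 80 suspension was then given as a single oral gavage dose (5 mL/kg). Fractional shortening was measured at chosen time points over 24 hours, with plasma concentrations sampled concurrently.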

[2] = test system: R403Q mice (alpha cardiac myosin heavy chain mutation, familial hypertrophic cardiomyopathy model); experiment: Longitudinal echocardiography in R403Q mouse model of HCM; assay type: in vivo; conditions: compound formulated in chow for 24 weeks, echocardiography every 4 weeks, versus untreated R403Q mice
Procedure: Assessment over time of in vivo cardiac function by echocardiography was performed using a previously reported mouse model of familial hypertrophic cardiomyopathy, which was generated by an arginine to glutamine mutation at residue 403 (R403Q) of the alpha cardiac myosin heavy chain (MHC) gene (Geisterfer-Lowrance et al., Science. 1996 May 3; 272(5262):731-4). Cardiac dysfunction, fibrosis, and measures of cardiac hypertrophy (including ventricular wall thickness) increase with age in this mouse model (Geisterfer-Lowrance, supra; Jiang et al., Science. 2013, 342(6154):111-4).
R403Q mice received vehicle or Compound 142 formulated in chow for 24 weeks. Longitudinal echocardiography measurements were performed every 4 weeks. Echocardiography measurements were taken with mice under isoflurane (1-3%) anesthesia. 2-D M-mode images of the left ventricle were acquired in short-axis view. In vivo fractional shortening was determined by M-mode image analysis with the following calculation: ((End diastolic diameter−end systolic diameter)/end diastolic diameter×100).

IC50 ([1]; Rattus norvegicus, oral dosing, plasma concentration at which fractional shortening is 50% of pre-dose baseline, estimated): 2.9 µM
Compound: CC(C)c1nc(-c2ccc3c(c2)CC[C@H]3NC(=O)c2nnn(C)n2)no1 [Compound 142, (R)—N-(5-(5-isopropyl-1,2,4-oxadiazol-3-yl)-2,3-dihydro-1H-inden-1-yl)-2-methyl-2H-tetrazole-5-carboxamide]
inhibition in vivo at 6 mg/kg ([1]; Rattus norvegicus, 1 h, 1-2 h post dose, read-out: FS (% reduction from baseline) at 1-2 h post dose (Mean ± S.D.)): 40 ± 9% | inhibition in vivo at 6 mg/kg ([1]; Rattus norvegicus, 4 h post dose, read-out: FS (% reduction from baseline) at 4 h post dose (Mean ± S.D.)): 18 ± 11% | IC10 ([1]; oral dosing, plasma concentration at which, estimated): 0.7 µM | septal and left ventricular posterior wall thickness [2]: attenuated increases in septal and left ventricular posterior wall thickness
